This is an account of results in paper PMC7031773, “Molecular Mechanisms Responsible for Pharmacological Effects of Genipin on Mitochondrial Proteins” (Biophysical Journal, 2019).

Each structure is given as a SMILES string.

Format in all cases: biochemical
Test [1] has as its target T1, mitochondrial uncoupling protein 1 (UCP1) (Mus musculus, UniProt P12242).
T1 construct: recombinant mouse UCP1 from E. coli inclusion bodies, reconstituted in lipid bilayers
T1 sequence (P12242 1-307): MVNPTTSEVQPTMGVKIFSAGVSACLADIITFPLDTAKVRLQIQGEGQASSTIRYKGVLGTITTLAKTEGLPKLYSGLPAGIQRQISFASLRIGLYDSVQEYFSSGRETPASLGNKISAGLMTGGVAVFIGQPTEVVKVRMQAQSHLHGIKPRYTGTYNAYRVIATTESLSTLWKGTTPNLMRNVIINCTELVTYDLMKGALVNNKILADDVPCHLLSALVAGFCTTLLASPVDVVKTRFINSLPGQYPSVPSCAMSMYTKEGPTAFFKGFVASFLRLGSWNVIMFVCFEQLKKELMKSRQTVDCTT
Briefly: planar lipid bilayer conductance, competition of […] ATP with […] genipin. The text has this:
The first bar is the inhibition after the addition of ATP

In test [2] the target is T2, mitochondrial complex III (CIII) (Bos taurus, UniProt P00157).
T2 construct: gene MT-CYB; complex III isolated from bovine heart
Briefly: cytochrome c reduction by isolated complex III, […] genipin.

The target in test [3] is T3, mitochondrial uncoupling protein 2 (UCP2) (Mus musculus, UniProt P70406).
T3 construct: recombinant mouse UCP2 from E. coli inclusion bodies, reconstituted in lipid bilayers
T3 sequence (P70406 1-309): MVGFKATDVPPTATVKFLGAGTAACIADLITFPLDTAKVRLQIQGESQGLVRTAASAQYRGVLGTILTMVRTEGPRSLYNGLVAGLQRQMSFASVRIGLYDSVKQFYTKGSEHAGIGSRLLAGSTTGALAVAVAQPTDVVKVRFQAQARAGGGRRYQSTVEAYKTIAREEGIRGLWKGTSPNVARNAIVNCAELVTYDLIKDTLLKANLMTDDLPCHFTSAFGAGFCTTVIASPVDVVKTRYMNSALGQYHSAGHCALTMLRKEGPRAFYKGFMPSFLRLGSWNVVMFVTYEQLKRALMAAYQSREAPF
Nature of the test: planar lipid bilayer conductance with reconstituted UCP2.

Test [4] concerns the target T4, mitochondrial uncoupling protein 3 (UCP3) (Mus musculus, UniProt P56501).
T4 construct: recombinant mouse UCP3 from E. coli inclusion bodies, reconstituted in lipid bilayers
T4 sequence (P56501 1-308): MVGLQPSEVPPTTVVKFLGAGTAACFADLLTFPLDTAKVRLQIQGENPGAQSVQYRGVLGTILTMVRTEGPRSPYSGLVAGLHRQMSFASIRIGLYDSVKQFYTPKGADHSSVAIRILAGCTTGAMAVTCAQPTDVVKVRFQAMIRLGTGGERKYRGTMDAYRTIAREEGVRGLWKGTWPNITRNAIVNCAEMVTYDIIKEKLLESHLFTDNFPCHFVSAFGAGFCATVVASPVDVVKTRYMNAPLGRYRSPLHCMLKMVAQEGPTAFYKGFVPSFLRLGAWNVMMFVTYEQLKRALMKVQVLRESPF
Briefly: planar lipid bilayer conductance with reconstituted UCP3.

The target in test [5] is T1, mitochondrial uncoupling protein 1 (UCP1). Nature of the test: planar lipid bilayer conductance with reconstituted UCP1; LC-MS/MS of covalent adducts; arginine mutants; competition with ATP.
For test [6] the target is unchanged. Briefly: planar lipid bilayer conductance with reconstituted UCP1.

For `Nc1ncnc2c1ncn2[C@@H]1O[C@H](COP(=O)(O)OP(=O)(O)OP(=O)(O)O)[C@@H](O)[C@H]1O` [ATP], in test [1], the “planar lipid bilayer conductance, competition of 3 mM ATP with 50 μM genipin” value is “Competitive inhibition of UCP1 with genipin (GNP) and ATP. The first bar is the inhibition after the addition of ATP”.
The IC50 is the concentration that gives 50% inhibition. The low end stands for greater potency in that assay, the high end for weaker potency in that assay. Consider `COC(=O)C1=CO[C@@H](O)[C@@H]2C(CO)=CC[C@H]12` [GNP, genipin], for which the activity at 50 µM in test [2] came out at 63 ± 7%. The results for the half-maximal inhibitory concentration (IC50) in test [3], in test [4] and in test [5] were 94 ± 24 µM, 41 ± 12 µM and 133 ± 12 µM, respectively.
A word on the EC50: it is the concentration at which the effect is half-maximal. Low readings indicate a more potent agent, high ones a less potent agent. In the case of `COC(=O)C1=CO[C@@H](O[C@@H]2O[C@H](CO)[C@@H](O)[C@H](O)[C@H]2O)[C@@H]2C(CO)=CC[C@H]12` [geniposide], the EC50 in test [6] came to 693 ± 90 µM.
